This data set is described as follows: recombinant UMI read abundance after kanamycin selection (control-corrected) (log10(CPM+1)); higher = more efficient recombination; extreme values may be limits of the assay; sequences stand for … in AGTGCAGAGAAAATCGGCCAGTTTTCTCTGCCTGCAGTCCGCATGCCGTGGGACCCCTTGGGTTCTAACCTGTTGCCTAGATTTATGCAGCGGACTGCCTTTCTCCCAAAGTGATAAACCGG…AGGTTGGTTTCACT; site = the 11-nt donor. The method in brief: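 For the IS621 bridge recombinase, a pooled Escherichia coli screen tested donor and donor-binding-loop pairs. Cells received the pair library together with a target plasmid encoding a fixed target and T7-inducible recombinase, then went onto IPTG (0.07 mM) plus kanamycin or unselected plates in duplicate. After PCR across the donor–target junction and sequencing, recombinant UMI counts were normalized to CPM, averaged, and scaled by control-derived factors. Each value is given as log10(CPM+1).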
With “CCTGTTTCATGGACCGGTTTTCCCGGTAATCCGTATTTGAC (site CCTGTTTCTGT)”, the “recombinant UMI read abundance (log10)” value stood at 0.

On to “CCTTAGCCATGGACCGGTTTTCCCGGTAATCCGTATTTGCC (site CCATAGCCTGG)”, for which the “recombinant UMI read abundance (log10)” value worked out at 0.

On to “CCTTAGCCATGGACCGGTTTTCCCGGTAATCCGTATTTGCC (site CCCTAGCCTGG)”, for which the “recombinant UMI read abundance (log10)” value was 0.

Regarding “CCTTAGCCATGGACCGGTTTTCCCGGTAATCCGTATTTGCC (site CCGTAGCCTGG)”, the “recombinant UMI read abundance (log10)” value stood at 0.

In the case of “CCTTAGCCATGGACCGGTTTTCCCGGTAATCCGTATTTGCC (site CCTTAGCCTGG)”, the “recombinant UMI read abundance (log10)” value is 0.

Consider “CCTTCTACATGGACCGGTTTTCCCGGTAATCCGTATTTGAT (site CCTTCTACTAT)”, for which the “recombinant UMI read abundance (log10)” value came out at 0.

On to “CCTTGACCATGGACCGGTTTTCCCGGTAATCCGTATTTGAG (site CCTTGACCTCT)”, for which the “recombinant UMI read abundance (log10)” value amounted to 0.0135.

Consider “CCTTGAGCATGGACCGGTTTTCCCGGTAATCCGTATTTGTA (site CCTTGAGCTTA)”, for which the “recombinant UMI read abundance (log10)” value was 0.013.

For the sequence “CCTTGCACATGGACCGGTTTTCCCGGTAATCCGTATTTGAG (site CCTTGCACTCT)”, the “recombinant UMI read abundance (log10)” value came to 0.0135.

Turning to “CCTTGTGCATGGACCGGTTTTCCCGGTAATCCGTATTTGGA (site CCTTGTGCTTC)”, the “recombinant UMI read abundance (log10)” value worked out at 0.0149.

As for “CCTTTACCATGGACCGGTTTTCCCGGTAATCCGTATTTGCC (site AGACCGTCTCT)”, the “recombinant UMI read abundance (log10)” value worked out at 0.00566.

On to “CCTTTTACATGGACCGGTTTTCCCGGTAATCCGTATTTGCT (site CCATTTACTAG)”, for which the “recombinant UMI read abundance (log10)” value turned out to be 0.

As for “CCTTTTACATGGACCGGTTTTCCCGGTAATCCGTATTTGCT (site CCCTTTACTAG)”, the “recombinant UMI read abundance (log10)” value came to 0.

Turning to “CCTTTTACATGGACCGGTTTTCCCGGTAATCCGTATTTGCT (site CCGTTTACTAG)”, the “recombinant UMI read abundance (log10)” value was 0.00369.

Turning to “CCTTTTACATGGACCGGTTTTCCCGGTAATCCGTATTTGCT (site CCTTTTACTAG)”, the “recombinant UMI read abundance (log10)” value turned out to be 0.

As to “CGAAATCCATGGACCGGTTTTCCCGGTAATCCGTATTTGCT (site CGAAATCCTAG)”, the “recombinant UMI read abundance (log10)” value was found to be 0.783.

For “CGAAATCCATGGACCGGTTTTCCCGGTAATCCGTATTTGCT (site CGGAATCCTAA)”, the “recombinant UMI read abundance (log10)” value was 0.

For the sequence “CGAAATCCATGGACCGGTTTTCCCGGTAATCCGTATTTGTA (site CGAAATCCTTA)”, the “recombinant UMI read abundance (log10)” value worked out at 1.11.

As for “CGAAATCCATGGACCGGTTTTCCCGGTAATCCGTATTTGTA (site CGGAATCCTAA)”, the “recombinant UMI read abundance (log10)” value amounted to 0.00383.

For the sequence “CGAAATCCATGGACCGGTTTTCCCGGTAATCCGTATTTGTT (site CGAAATCCTAA)”, the “recombinant UMI read abundance (log10)” value came to 0.953.

As to “CGAAATCCATGGACCGGTTTTCCCGGTAATCCGTATTTGTT (site CGCAATCCTAA)”, the “recombinant UMI read abundance (log10)” value was 0.

Take “CGAAATCCATGGACCGGTTTTCCCGGTAATCCGTATTTGTT (site CGGAATCCTAA)”: the “recombinant UMI read abundance (log10)” value was 0.

As for “CGAAATCCATGGACCGGTTTTCCCGGTAATCCGTATTTGTT (site CGTAATCCTAA)”, the “recombinant UMI read abundance (log10)” value is 0.

For the sequence “CGAAATTCATGGACCGGTTTTCCCGGTAATCCGTATTTGTT (site CGAAATTCTAA)”, the “recombinant UMI read abundance (log10)” value is 0.945.

On to “CGAAATTCATGGACCGGTTTTCCCGGTAATCCGTATTTGTT (site CGGAATCCTAA)”, for which the “recombinant UMI read abundance (log10)” value turned out to be 0.

Regarding “CGAACACCATGGACCGGTTTTCCCGGTAATCCGTATTTGCT (site CGAACACCTAG)”, the “recombinant UMI read abundance (log10)” value worked out at 0.

For “CGAACACCATGGACCGGTTTTCCCGGTAATCCGTATTTGCT (site CGATCATCTAG)”, the “recombinant UMI read abundance (log10)” value turned out to be 0.

As to “CGAACGTCATGGACCGGTTTTCCCGGTAATCCGTATTTGCT (site CGAACGTCTAG)”, the “recombinant UMI read abundance (log10)” value came out at 2.87.

As for “CGAACGTCATGGACCGGTTTTCCCGGTAATCCGTATTTGCT (site CGATCATCTAG)”, the “recombinant UMI read abundance (log10)” value stood at 0.

Turning to “CGAAGAGCATGGACCGGTTTTCCCGGTAATCCGTATTTGAC (site CGAAGAGCTGT)”, the “recombinant UMI read abundance (log10)” value was determined as 2.51.

“CGAAGGGCATGGACCGGTTTTCCCGGTAATCCGTATTTGGT (site CGAAGGGCTAC)”: the “recombinant UMI read abundance (log10)” value stood at 1.32.

Take “CGAAGTACATGGACCGGTTTTCCCGGTAATCCGTATTTGCG (site CGAAGTACTCG)”: the “recombinant UMI read abundance (log10)” value was determined as 2.12.

With “CGAATACCATGGACCGGTTTTCCCGGTAATCCGTATTTGTA (site CGAATACCTTA)”, the “recombinant UMI read abundance (log10)” value came out at 0.

As to “CGAATATCATGGACCGGTTTTCCCGGTAATCCGTATTTGCG (site CGAATATCTCG)”, the “recombinant UMI read abundance (log10)” value stood at 2.99.

The values are drawn from the supplement of paper PMC11208160.
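Note: IS621 bridge recombinase in Escherichia coli cells against a fixed T5 target plasmid.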
